In assay [1] the target is Adrenergic receptor alpha (Rattus norvegicus) (UniProt P15823+P23944+P43140+P22086+P19328+P22909). Put plainly: Ratio of IC50 towards alpha1 to alpha-2 receptors of rat vas deferens. It counts as protein assay.
For assay [2], the species on record is Rattus norvegicus. Put plainly: Alpha-1-adrenoceptor blocking activity by antagonism of (-)-norepinephrine induced contractions of epididymal portion of rat vas deferens. It is filed as functional.
Assay [3] in a line: Inhibition of epinephrine induced human blood platelet aggregation. It is filed as functional.
Assay [4] can be described thus: Inhibition of ADP induced human blood platelet aggregation. It counts as functional.
For assay [5], the species on record is Rattus norvegicus. Nature of the assay: Alpha-1-adrenoceptor blocking activity by antagonism of (-)-norepinephrine induced contractions of epididymal portion of rat vas deferens; Inactive up to a concentration of 20 uM. It counts as functional.
Assay [6] addresses T1, Adrenergic receptor alpha-2 (Rattus norvegicus, UniProt P22086+P19328+P22909).
T1 sequence (P22086 whole entry): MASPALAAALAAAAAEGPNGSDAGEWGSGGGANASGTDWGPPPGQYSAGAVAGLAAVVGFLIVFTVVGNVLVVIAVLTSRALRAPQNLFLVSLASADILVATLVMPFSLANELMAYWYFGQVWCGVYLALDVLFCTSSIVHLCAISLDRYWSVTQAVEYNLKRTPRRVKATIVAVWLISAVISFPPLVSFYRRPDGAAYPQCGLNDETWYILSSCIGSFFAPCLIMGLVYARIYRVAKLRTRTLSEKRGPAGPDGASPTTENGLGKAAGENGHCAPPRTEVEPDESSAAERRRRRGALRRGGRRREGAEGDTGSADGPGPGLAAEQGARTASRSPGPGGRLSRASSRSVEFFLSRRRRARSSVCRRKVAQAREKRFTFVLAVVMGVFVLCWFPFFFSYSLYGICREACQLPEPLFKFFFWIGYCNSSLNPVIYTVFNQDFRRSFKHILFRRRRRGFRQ
T1 sequence (P19328 whole entry): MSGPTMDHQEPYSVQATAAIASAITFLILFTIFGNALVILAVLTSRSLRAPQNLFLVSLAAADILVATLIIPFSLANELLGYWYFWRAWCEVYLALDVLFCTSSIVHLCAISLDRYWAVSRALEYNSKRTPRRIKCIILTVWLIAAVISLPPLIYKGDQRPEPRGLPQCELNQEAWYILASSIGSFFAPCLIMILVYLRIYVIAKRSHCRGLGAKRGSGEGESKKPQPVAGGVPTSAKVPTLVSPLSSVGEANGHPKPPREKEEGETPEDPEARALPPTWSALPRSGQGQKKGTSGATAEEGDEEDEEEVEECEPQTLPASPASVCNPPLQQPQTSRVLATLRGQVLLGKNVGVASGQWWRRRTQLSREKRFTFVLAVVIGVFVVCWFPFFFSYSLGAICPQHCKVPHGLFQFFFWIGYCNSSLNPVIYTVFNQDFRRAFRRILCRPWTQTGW
T1 sequence (P22909 whole entry): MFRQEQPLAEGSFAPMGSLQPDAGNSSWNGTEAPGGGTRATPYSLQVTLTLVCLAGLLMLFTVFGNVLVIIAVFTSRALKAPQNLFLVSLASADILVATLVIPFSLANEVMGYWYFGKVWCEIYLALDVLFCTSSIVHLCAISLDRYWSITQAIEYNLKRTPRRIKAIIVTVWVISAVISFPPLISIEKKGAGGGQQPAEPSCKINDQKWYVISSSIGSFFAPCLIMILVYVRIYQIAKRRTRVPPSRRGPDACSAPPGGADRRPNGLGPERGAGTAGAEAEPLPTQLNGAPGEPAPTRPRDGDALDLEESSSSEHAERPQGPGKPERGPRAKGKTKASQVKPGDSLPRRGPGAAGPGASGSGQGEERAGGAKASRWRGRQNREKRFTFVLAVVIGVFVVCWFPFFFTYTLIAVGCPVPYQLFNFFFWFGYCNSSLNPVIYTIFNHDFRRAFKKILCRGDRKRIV
Nature of the assay: Alpha-2 adrenergic receptor blocking activity by antagonism of clonidine induced depression of twitch response of field stimulated prostatic portion of rat vas deferens. It counts as functional, tissue-based.

For orientation: IC50 means the concentration that inhibits the measured activity by half. On to `COc1ccccc1CNCCCCCCCCCCCNCCSSCCNCCCCCCCCCCCNCc1ccccc1OC`, for which the Selectivity in assay [1] was less than 2.57. Also, the values for the half-maximal inhibitory concentration (IC50) (in the assay listed under Rattus norvegicus [2]; in assay [3]; in assay [4]) were 51.3 µM, 1.7 µM and 2.1 µM, respectively.
As to `COc1ccccc1CNCCCCCCNCCCCCCNCCSSCCNCCCCCCNCCCCCCNCc1ccccc1OC.Cl.O`, the IC50 entry in the assay filed under Rattus norvegicus [5] was “Not Active”.
In the case of `COc1ccccc1CNCCCCCCCCCCCCNCCSSCCNCCCCCCCCCCCCNCc1ccccc1OC`, in assay [1], the Selectivity is less than 0.41. The half-inhibitory concentration (IC50) in the assay filed under Rattus norvegicus [2] came out at 8.23 µM; in assay [3] it was 1.7 µM; in assay [4], 2.1 µM.
Take `Nc1ncnc2c1ncn2[C@@H]1O[C@H](CO)[C@@H](O)[C@H]1O` [ADENOSINE]: the 50% inhibitory concentration (IC50) in assay [3] was determined as 1.8 µM; in assay [4], 2.5 µM.
As for `COc1ccccc1CNCCCCCCNCCSSCCNCCCCCCNCc1ccccc1OC` [BENEXTRAMINE], the Selectivity in assay [1] stood at 9.2. Moreover, the IC50 is 7.55 µM in the assay listed under Rattus norvegicus [2], 0.82 µM in assay [6], 31.3 µM in assay [3] and 97 µM in assay [4].
Consider `COc1ccccc1CNCCCCCCCCCNCCSSCCNCCCCCCCCCNCc1ccccc1OC`, for which the Selectivity in assay [1] is less than 3.4. Further, the figures for the IC50 (in the assay listed under Rattus norvegicus [2]; in assay [3]; in assay [4]) were 68 µM, 2.3 µM and 6 µM, respectively.
In the case of `COc1ccccc1CNCCCNCCCCCCCCNCCSSCCNCCCCCCCCNCCCNCc1ccccc1OC.Cl.O`, the IC50 entry in the assay listed under Rattus norvegicus [5] is recorded as “Not Active”.
As for `COc1ccccc1CNCCCCCCCCNCCSSCCNCCCCCCCCNCc1ccccc1OC`, the Selectivity in assay [1] was 80.7. Also, the half-maximal inhibitory concentration (IC50) in the assay listed under Rattus norvegicus [2] came to 98.5 µM; in assay [6], 1.22 µM; in assay [3], 5.4 µM; in assay [4], 22.7 µM.
As for `C1=CC(CNCCCCCCCCCCCCNCCSSCCNCCCCCCCCCCCCNCC2C=CC=N2)N=C1` (stereo unspecified), in assay [1], the Selectivity was less than 0.37. In addition, the IC50 in the assay listed under Rattus norvegicus [2] worked out at 7.3 µM.
In the same order, the values of `COc1ccccc1CNCCCCCCCCCCCCN(C)CCSSCCN(C)CCCCCCCCCCCCNCc1ccccc1OC` are less than 2.35 and 46.9 µM.
Regarding `COc1ccccc1CNCCCCCCCCCCNCCSSCCNCCCCCCCCCCNCc1ccccc1OC`, in assay [1], the Selectivity was less than 3.14. In addition, the concentration for half-maximal inhibition (IC50) came to 62.8 µM in the assay listed under Rattus norvegicus [2], 2.2 µM in assay [3] and 2.8 µM in assay [4].
With `COc1ccccc1CNCCCCCC(=O)NCCCCCCNCCSSCCNCCCCCCNC(=O)CCCCCNCc1ccccc1OC`, the concentration for half-maximal inhibition (IC50) result in the assay filed under Rattus norvegicus [5] was “Not Active”.
Same read-out and setting: under `COc1ccccc1CNCCC(=O)NCCCCCCCCNCCSSCCNCCCCCCCCNC(=O)CCNCc1ccccc1OC` stands “Not Active”.
For `COc1ccccc1CNCCCCCNCCSSCCNCCCCCNCc1ccccc1OC`, in assay [1], the Selectivity was 2.16. For the same compound, the IC50 was 55.8 µM in the assay listed under Rattus norvegicus [2], 25.8 µM in assay [6], 46 µM in assay [3] and 87 µM in assay [4].
For `COc1ccccc1CNCCCCCCCNCCSSCCNCCCCCCCNCc1ccccc1OC`, in that order: 53.1, 55.2 µM, 1.04 µM, 20.6 µM and 41.3 µM.

The values above are taken from ChEMBL document CHEMBL1124213, “Structure-activity relationships among benextramine-related tetraamine disulfides. Chain length effect on alpha-adrenoreceptor blocking activity” (J Med Chem, 1988).
